According to patent US5900488A, “Method for treating mycosis using imidazolylacetonitrile derivatives” (Nihon Nohyaku Co., Ltd., priority 1995, dated 1999):
In brackets after ≈: the same amount, converted by molar mass. Where two headings read alike, the source gives them in different places.

How the values were obtained:
[1] = test system: dermatophytes; assay: Antifungal activity against dermatophytes compared with racemic mixtures (general statement); conditions: especially highly sensitive strains
[2] = test system: Candida albicans; assay: In vitro antifungal activity against Candida albicans, MIC by twofold micro-broth dilution (Test Example 3); format: cell-based; conditions: 48 hours at 35° C., pH 7.0, read-out: MIC
Description: MICs were determined by the twofold micro-broth dilution method with RPMI 1640 buffered with morphorino-propanesulfonic acid to a final molarity of 0.165M (pH 7.0). One hundred μl of a yeast cell suspension (1 to 5×10^3 cells/ml) and 100 μl of the compound-containing medium were pipetted into each well flat-bottomed microtiter plates. After incubation for 48 hours at 35° C., the turbidity of each well was measured at 630 nm.

[3] = test system: Aspergillus fumigatus; assay: In vitro antifungal activity against Aspergillus fumigatus, MIC by twofold agar dilution (Test Example 4); format: cell-based; conditions: read-out: MIC
Description: MICs were determined by the twofold agar dilution method with casitone agar which constituted with 0.9% bactocasitone, 1% bacto-yeast extract, 2% glucose, 0.1% KH2 PO4, 0.1% Na2 HPO4, 1% Na3 C6 H5 O7 and 1.6% agar. A loopful of each inoculum (1×10^6 conidia/ml) was streaked onto the agar plate containing a compound, and a fungal growth was observed after incubation for 48 hours at 35° C. The MIC was determined as the lowest drug concentration which prevented a visible fungal growth.

[4] = test system: Trichophyton mentagrophytes; assay: In vitro activity against Trichophyton mentagrophytes, MIC by twofold macro-broth dilution (Test Example 1); format: cell-based; conditions: Trichophyton mentagrophytes, 7 days at 27° C.
Description: (§1) Minimum inhibitory concentrations (MICs) were determined by the twofold macro-broth dilution method with Sabouraud's glucose broth which constituted with 1% bactopeptone and 4% glucose. To each tube containing 9.8 ml of the broth, 0.1 ml of each testing compound dissolved in DMSO and 0.1 ml of a conidial suspension (1×10^6 conidia/ml) were added. The fungal growth was observed after incubation for 7 days at 27° C. The MIC was determined as the lowest drug concentration which prevented a visible fungal growth.

[5] = test system: Trichophyton rubrum; assay: In vitro activity against Trichophyton rubrum, MIC by twofold macro-broth dilution (Test Example 1); format: cell-based
Description: as §1

N#C/C(=C1/SC[C@@H](c2ccc(Cl)cc2Cl)S1)n1ccnc1 [Compound (B), R-(-)-(E)-[4-(2,4-dichlorophenyl)-1,3-dithiolan-2-ylidene]-1-imidazolylacetonitrile]
antifungal activity relative to the racemic mixtures [1]: several times | MIC ([2]; IFO0197, strain IFO 0197, 80% inhibition): 0.0625 µg/mL (≈ 0.176 µM) | MIC ([2]; IFO0579, strain IFO 0579, 80% inhibition): 0.0313 µg/mL (≈ 0.0883 µM) | MIC ([2]; IFO1269, strain IFO 1269, 80% inhibition): 0.0625 µg/mL (≈ 0.176 µM) | MIC ([2]; IFO1270, strain IFO 1270, 80% inhibition): 0.25 µg/mL (≈ 0.706 µM) | MIC ([2]; IFO1385, strain IFO 1385, 80% inhibition): 0.0625 µg/mL (≈ 0.176 µM) | MIC ([2]; IFO1386, strain IFO 1386, 80% inhibition): 0.125 µg/mL (≈ 0.353 µM) | MIC ([2]; TIMM3163, strain TIMM 3163, 80% inhibition): 16 µg/mL (≈ 45.2 µM) | MIC ([2]; TIMM3164, strain TIMM 3164, 80% inhibition): 0.5 µg/mL (≈ 1.41 µM) | MIC ([2]; TIMM3165, strain TIMM 3165, 80% inhibition): 2 µg/mL (≈ 5.65 µM) | MIC ([2]; TIMM3166, strain TIMM 3166, 80% inhibition): 1 µg/mL (≈ 2.82 µM) | MIC ([3]; TIMM0063, strain TIMM 0063, 48 hours at 35° C.): 0.00063 µg/mL (≈ 0.00178 µM) | MIC ([3]; TIMM0078, strain TIMM 0078, 48 hours at 35° C.): 0.00063 µg/mL (≈ 0.00178 µM) | MIC ([3]; TIMM1728, strain TIMM 1728, 48 hours at 35° C.): ≤ 0.00031 µg/mL | MIC ([3]; TIMM1767, strain TIMM 1767, 48 hours at 35° C.): 0.00063 µg/mL (≈ 0.00178 µM) | MIC ([4]; IFO5466, 168 h, strain IFO 5466): 0.02 µg/mL (≈ 0.0565 µM) | MIC ([4]; IFO5809, 168 h, strain IFO 5809): 0.005 µg/mL (≈ 0.0141 µM) | MIC ([4]; IFO5810, 168 h, strain IFO 5810): 0.005 µg/mL (≈ 0.0141 µM) | MIC ([4]; IFO5811, 168 h, strain IFO 5811): 0.01 µg/mL (≈ 0.0282 µM) | MIC ([4]; IFO5929, 168 h, strain IFO 5929): 0.01 µg/mL (≈ 0.0282 µM) | MIC ([4]; TIMM1189, 168 h, strain TIMM 1189): 0.01 µg/mL (≈ 0.0282 µM) | MIC ([4]; TIMM1814, 168 h, strain TIMM 1814): 0.02 µg/mL (≈ 0.0565 µM) | MIC ([4]; TIMM1815, 168 h, strain TIMM 1815): 0.02 µg/mL (≈ 0.0565 µM) | MIC ([4]; TIMM1817, 168 h, strain TIMM 1817): 0.01 µg/mL (≈ 0.0282 µM) | MIC ([4]; TIMM2789, 168 h, strain TIMM 2789): 0.0025 µg/mL (≈ 0.00706 µM) | sensitivity (in words) [5]: highly sensitive | MIC ([5]; IFO5467, 168 h, strain IFO 5467, 7 days at 27° C.): 0.0025 µg/mL (≈ 0.00706 µM) | MIC ([5]; IFO5807, 168 h, strain IFO 5807, 7 days at 27° C.): 0.0025 µg/mL (≈ 0.00706 µM) | MIC ([5]; IFO5808, 168 h, strain IFO 5808, 7 days at 27° C.): 0.0025 µg/mL (≈ 0.00706 µM) | MIC ([5]; IFO6203, 168 h, strain IFO 6203, 7 days at 27° C.): 0.0013 µg/mL (≈ 0.00367 µM) | MIC ([5]; IFO6204, 168 h, strain IFO 6204, 7 days at 27° C.): 0.0025 µg/mL (≈ 0.00706 µM) | MIC ([5]; IFO9185, 168 h, strain IFO 9185, 7 days at 27° C.): 0.0013 µg/mL (≈ 0.00367 µM) | MIC ([5]; TIMM1822, 168 h, strain TIMM 1822, 7 days at 27° C.): 0.00063 µg/mL (≈ 0.00178 µM) | MIC ([5]; TIMM1823, 168 h, strain TIMM 1823, 7 days at 27° C.): 0.0013 µg/mL (≈ 0.00367 µM) | MIC ([5]; TIMM1824, 168 h, strain TIMM 1824, 7 days at 27° C.): 0.0013 µg/mL (≈ 0.00367 µM) | MIC ([5]; TIMM1830, 168 h, strain TIMM 1830, 7 days at 27° C.): 0.00063 µg/mL (≈ 0.00178 µM)
